Each structure is given as a SMILES string.

The test system of this test is Malassezia furfur 14521. In words: Antifungal activity on M. furfur (resazurin viability assay, MIC and ΣFIC synergy evaluation). It counts as cell-based. The settings on record: M. furfur 14521, YPD broth, 30° C., 72 hours, resazurin readout. The method, then: The samples as given in Table-1 were subjected to their anti fungal efficacy on M. furfur as described hereinafter.
The test organism used in the assay is Malassezia furfur 14521. The M. furfur were revived from glycerol stock in YPD agar plates (yeast extract peptone dextrose media) containing 1% corn oil. The composition of YPD is yeast extract:10 g/litre, dextrose 20 g/litre, Peptone 20 g/litre and […]. The plates were incubated at 30° C. for 72 hours for forming fungal colonies. A suspension culture of M. furfur was made using the colonies from plates in YPD broth. The optical density of the suspension culture was adjusted to 0.6 using spectrophotometer. This suspension was diluted in the ratio of 1:10 using YPD broth and 100 μl of this culture was added into each well of 96 well test plate. A stock solution of 4× strength of test ingredients (itaconic acid and sodium benzoate) was prepared for each of the concentrations tested eg for 0.125% test concentration of itaconic acid/sodium benzoate a stock of 0.5% was prepared in YPD broth. 50 μl of each of the test ingredient was added to 100 μl of M. furfur culture, making the final volume to 200 μl. In wells containing only one test ingredient, (itaconic acid or sodium benzoate only) 50 μl of test ingredient was added to 100 μl of fungal culture and then made up the volume to 200 μl with YPD broth. The plates were incubated at 30° C. for 72 hours. Post incubation 10 μl of 1% resazurin was added to each well and incubated for 18 hours at 30° C. […] The anti-fungal efficacy of the ingredient or combination of ingredients is calculated based on the colour development.
The combinations of test ingredients with synergistic anti-fungal benefits were evaluated using ΣFIC method. The ΣFIC of the combinations were calculated using the following formula • ΣFIC of combination A+B=[Concentration of A]/MIC of A+[concentration of B]/MIC of B, where MIC is the Minimum inhibitory concentration (MIC) of ingredient. […]
In general terms: Alamar Blue is a resazurin reagent that responds to reducing activity.
As to `C=C(CC(=O)OC)C(=O)OC` [Dimethyl itaconate], the “MIC (Minimum inhibitory concentration)” value came out at 0.5 wt %.
Under `C=C(CC(=O)O)C(=O)O` [Itaconic acid] stands 0.25 wt %; under `O=C([O-])c1ccccc1.[Na+]` [Sodium Benzoate], 0.5 wt %.

For the origin of these results see patent publication US20220287936A1, “AN ANTIDANDRUFF COMPOSITION” (Conopco, Inc., d/b/a UNILEVER, priority 2019, published 2022).
